Experimental data taken from patent publication US12389911B2, “Benzimidazole compound or salt thereof, agricultural and horticultural insecticidal and acaricidal agent containing said compound, and method for using same” (NIHON NOHYAKU CO., LTD., priority 2019, dated 2025).

Columns and labels:
[1] = system: Green peach aphid (Myzus persicae); experiment: Test for control efficacy on green peach aphid (foliar application on Chinese cabbage); assay type: in vivo; details: 500 ppm, foliar application to potted Chinese cabbage, 6 days after application
Description: Test for Control Efficacy on Green Peach Aphid (Myzus persicae) Chinese cabbage plants were planted in plastic pots (diameter: 8 cm, height: 8 cm), green peach aphids were propagated on the plants, and the number of surviving Green peach aphids in each pot was counted. The benzimidazole compounds represented by the general formula (1) of the present invention or salts thereof were separately dispersed in water and diluted to 500 ppm. The agrochemical dispersions were applied to the foliage of the potted Chinese cabbage plants. After the plants were air-dried, the pots were kept in a greenhouse. At 6 days after the foliar application, the number of surviving Green peach aphids on the Chinese cabbage plant in each pot was counted, the control rate was calculated according to the formula shown below, and the control efficacy was evaluated according to the criteria shown below. Control rate=100−{(T×Ca)/(Ta×C)}×100 [Expression 1] Ta: the number of survivors before the foliar application in a treatment plot T: the number of survivors after the foliar application in a treatment plot Ca: the number of survivors before the foliar application in a non-treatment plot C: the number of survivors after the foliar application in a non-treatment plot Criteria • A: the control rate is 100%. • B: the control rate is 90 to 99%. • C: the control rate is 80 to 89%. • D: the control rate is 50 to 79%.

[2] = system: Two-spotted spider mite (Tetranychus urticae); experiment: Acaricidal action on two-spotted spider mite (kidney bean leaf disk spray); assay type: in vivo; details: 500 ppm, adult females, 25° C., two days after treatment
Protocol: Acaricidal Action on Two-Spotted Spider Mite (Tetranychus urticae)
Leaf disk having a diameter of 2 cm was prepared by leaves of kidney bean, and the leaf disk was placed on the wetted filter paper. Adult hens of two-spotted spider mite were inoculated on the wetted filter paper, and then 50 ml of an agrochemical dispersion, prepared by diluting a formulation containing the benzimidazole compound represented by the general formula (1) of the present invention or salt thereof as an active ingredient to adjust each of the concentrations to 500 ppm, was sprayed on turntable uniformly. After the spraying, it was allowed to stand in a thermostatic chamber at 25° C. Two days after the treatment of an agrochemical dispersion, the dead mites were counted, the corrected mortality rate was calculated according to the formula shown below, and the acaricidal efficacy was evaluated according to the criteria of Test Example 2. This test was conducted in duplicate using 10 adult hens of two-spotted spider per plot. Corrected mortality(%)=(Number of dead mites in a non-treatment plot−Number of dead mites in a treatment plot)/(Number of dead mites in a non-treatment plot)×100 [Expression 4]

| SMILES | control efficacy (control rate), activity level [1] | acaricidal efficacy (corrected mortality rate), activity level [2] |
| --- | --- | --- |
| CCc1cn(-c2nc3ccccc3n2S(=O)(=O)CC)nc1C(F)(F)F [Compound 2-19] | D or higher | D or higher |
| CCS(=O)(=O)n1c(-n2cnc(C(F)(F)C(F)(F)C(F)(F)C(F)(F)F)c2)nc2ccccc21 [Compound 1-27] | D or higher | D or higher |
| CCC(C)(C)OC(=O)c1cn(-c2nc3ccccc3n2S(=O)(=O)CC)nc1C(F)(F)F [Compound 2-54] | D or higher | D or higher |
| CCS(=O)(=O)n1c(-n2cc(C(F)(C(F)(F)F)C(F)(F)F)cn2)nc2ccccc21 [Compound 2-10] | D or higher | D or higher |
| CCS(=O)(=O)n1c(-n2cc(C#Cc3ccc(C(F)(F)F)cc3)cn2)nc2ccccc21 [Compound 2-8] | D or higher | D or higher |
| CCCCCCCCc1cn(-c2nc3ccccc3n2S(=O)(=O)CC)cn1 [Compound 1-4] | D or higher | D or higher |
| CCOC(=O)c1cn(-c2nc3ccccc3n2S(=O)(=O)CC)nc1C(F)(F)F [Compound 2-26] | D or higher | D or higher |
| CCS(=O)(=O)n1c(-n2cc(C(=O)OC(C)(C)C)c(C#CC(C)(C)C)n2)nc2ccccc21 [Compound 2-145] |  | D or higher |
| CCS(=O)(=O)n1c(-n2cc(CCC(=O)OC(C)(C)C)c(C(F)(F)F)n2)nc2ccccc21 [Compound 2-61] |  | D or higher |
| CCS(=O)(=O)n1c(-n2cnc(C(C)(C)C)c2)nc2ccccc21 [Compound 1-5] |  | D or higher |
| CCS(=O)(=O)n1c(-n2cc(I)c(C(=O)OC(C)(C)C)n2)nc2ccccc21 [Compound 2-104] |  | D or higher |
| CCS(=O)(=O)n1c(-n2nc(COC(C)(C)C)c(C(=O)OC(C)(C)C)c2C)nc2ccccc21 [Compound 2-91] |  | D or higher |
| CCS(=O)(=O)n1c(-n2cc(C#CCOC)c(C(F)(F)F)n2)nc2ccccc21 [Compound 2-128] |  | D or higher |
| CCS(=O)(=O)n1c(-n2cc(CCc3ccccc3)c(OCC(F)(F)F)n2)nc2ccccc21 [Compound 2-101] |  | D or higher |
| CCS(=O)(=O)n1c(-n2cc(CCC(C)(C)C)c(C(F)(F)F)n2)nc2ccccc21 [Compound 2-127] |  | D or higher |
| CCS(=O)(=O)n1c(-n2cc(CCc3ccc(C(F)(F)F)cc3)cn2)nc2ccccc21 [Compound 2-4] |  | D or higher |
| CCS(=O)(=O)n1c(-n2cc(C(=O)c3ccccc3)c(C(F)(F)F)n2)nc2ccccc21 [Compound 2-59] |  | D or higher |
| CCS(=O)(=O)n1c(-n2cc(C(=O)OC(C)(C)C)c(Cl)n2)nc2ccccc21 [Compound 2-47] |  | D or higher |
| CCS(=O)(=O)n1c(-n2cnc(C#N)c2)nc2ccccc21 [Compound 1-31] |  | D or higher |
| CCOC(=O)/C=C/c1nn(-c2nc3ccccc3n2S(=O)(=O)CC)cc1C(=O)OCC [Compound 2-143] |  | D or higher |
| CCS(=O)(=O)n1c(-n2cc(C(=O)NC(C)(C)C)c(C(C)(C)C)n2)nc2ccccc21 [Compound 2-97] |  | D or higher |
| CCS(=O)(=O)n1c(-n2cc(C(=O)N(C)C(C)(C)C)c(C(=O)N(C)C(C)(C)C)n2)nc2ccccc21 [Compound 2-98] |  | D or higher |
| CCS(=O)(=O)n1c(-n2cc(C#N)c(C(F)(F)C(F)(F)F)n2)nc2ccccc21 [Compound 2-111] |  | D or higher |
| CCS(=O)(=O)n1c(-n2cc(/C=C/C(=O)OCC34CC5CC(CC(C5)C3)C4)c(C(F)(F)F)n2)nc2ccccc21 [Compound 2-116] |  | D or higher |
| CCS(=O)(=O)n1c(-n2cc(C(=O)OC(C)(C)C)c(/C=C/C3CC3)n2)nc2ccccc21 [Compound 2-83] |  | D or higher |

| SMILES | control efficacy (control rate), activity level [1] | acaricidal efficacy (corrected mortality rate), activity level [2] |
| --- | --- | --- |
| CCS(=O)(=O)n1c(-n2cc(/C=C/C(=O)OC(C(F)(F)F)C(F)(F)F)c(C(F)(F)F)n2)nc2ccccc21 [Compound 2-112] |  | D or higher |
| CCCc1nn(-c2nc3ccccc3n2S(=O)(=O)CC)cc1C(=O)OC(C)(C)C [Compound 2-72] |  | D or higher |
| CCCCCCCCc1cn(-c2nc3ccccc3n2S(C)(=O)=O)cn1 [Compound 1-3] |  | D or higher |
| CCS(=O)(=O)n1c(-n2cc(Br)c(OC(F)F)n2)nc2ccccc21 [Compound 2-42] |  | D or higher |
| CCS(=O)(=O)n1c(-n2cnc(C#Cc3ccccc3)c2)nc2ccccc21 [Compound 1-18] |  | D or higher |
| CCCCCc1nn(-c2nc3ccccc3n2S(=O)(=O)CC)cc1C(=O)OC(C)(C)C [Compound 2-85] |  | D or higher |
| CCS(=O)(=O)n1c(-n2cc(C(=O)OC(C)(C)C)c(C(F)(F)C(F)(F)F)n2)nc2ccccc21 [Compound 2-90] |  | D or higher |
| CCS(=O)(=O)n1c(-n2cc(C(C)=O)c(C(F)(F)F)n2)nc2ccccc21 [Compound 2-25] |  | D or higher |
| CCS(=O)(=O)n1c(-n2cc(/C=C/C(=O)NCC(F)(F)F)c(C(F)(F)F)n2)nc2ccccc21 [Compound 2-117] |  | D or higher |
| CCS(=O)(=O)n1c(-n2cc(C#N)c(C(C)(C)C)n2)nc2ccccc21 [Compound 2-99] |  | D or higher |
| CCS(=O)(=O)n1c(-n2cnc(I)c2)nc2ccccc21 [Compound 1-20] |  | D or higher |
| CCS(=O)(=O)n1c(-n2cnc(C(=O)Nc3ccccc3)c2)nc2ccccc21 [Compound 1-30] | D or higher |  |
| CCS(=O)(=O)n1c(-n2cnc(CCc3ccc(C(C)(C)C)cc3)c2)nc2ccccc21 [Compound 1-10] |  | D or higher |
| CCS(=O)(=O)n1c(-n2cc(C#Cc3ccc(F)cc3)c(C(F)(F)F)n2)nc2ccccc21 [Compound 2-9] |  | D or higher |
| CCS(=O)(=O)n1c(-n2cnc(C#CC3CC3)c2)nc2ccccc21 [Compound 1-7] |  | D or higher |
| CCS(=O)(=O)n1c(-n2cc(Br)c(C(F)(F)F)n2)nc2ccccc21 [Compound 2-14] |  | D or higher |
| CCS(=O)(=O)n1c(-n2cc(CCc3ccc(F)cc3)c(C(F)(F)F)n2)nc2ccccc21 [Compound 2-5] |  | D or higher |
| CCS(=O)(=O)n1c(-n2cc(C#CC(C)(C)C)c(C(F)(F)F)n2)nc2ccccc21 [Compound 2-124] |  | D or higher |
| CCS(=O)(=O)n1c(-n2cnc(CCc3ccc(Br)cc3)c2)nc2ccccc21 [Compound 1-14] |  | D or higher |
| CCS(=O)(=O)n1c(-n2cc(CCc3ccc(OC)cc3)c(C(F)(F)F)n2)nc2ccccc21 [Compound 2-6] |  | D or higher |
| CCCCCCCCc1cnn(-c2nc3ccccc3n2S(=O)(=O)CC)c1 [Compound 2-2] |  | D or higher |
| CCS(=O)(=O)n1c(-n2cc(C3CC3)c(C(=O)OC(C)(C)C)n2)nc2ccccc21 [Compound 2-105] |  | D or higher |
| CCS(=O)(=O)n1c(-n2cc(Br)c(C(=O)OC(C)(C)C)n2)nc2ccccc21 [Compound 2-45] |  | D or higher |
| CCS(=O)(=O)n1c(-n2cc(C(=O)OC(C)(C)C)c(/C=C/C(=O)OC(C)(C)C)n2)nc2ccccc21 [Compound 2-144] |  | D or higher |
| CCS(=O)(=O)n1c(-n2cc(CCC(=O)OC(C)(C)C)c(C(=O)OC(C)(C)C)n2)nc2ccccc21 [Compound 2-135] |  | D or higher |
